Laboratory results reported in patent US12364679B2, “Esters for treatment of ocular inflammatory conditions” (Johnson & Johnson Vision Care, Inc., priority 2011, dated 2025).

Key:
[1] = Uptake by senofilcon contact lenses from IPA solution, gas chromatography; format: physicochemical
Method: ALA-EE was dissolved in isopropanol (IPA) at the concentration of 0.05 or 0.5%. Silicone hydrogel contact lenses (senofilcon, commercially available as ACUVUE® OASYS® with […]® Plus lenses) were then allowed to soak in the ALA-EE-containing IPA for up to 1 hour at room temperature, followed by soaking in ALA-EE containing IPA/packing solution (70% IPA/30% packing solution) for up to 1 hour, rinsing in packing solution, and packaging of lenses in the packing solution. ALA-EE uptake by the contact lenses was quantified by gas chromatography.
A comparative silicone hydrogel contact lens that incorporated alpha linolenic acid (ALA), rather than the ester, was prepared following the same protocol as Example 6.

[2] = system: transepithelial permeability in vitro model; assay: Transepithelial permeability in vitro model (TEP test), fluorescein leakage; format: cell-based; details: 0.2%, relative to vehicle/controls
Method: The compositions of Examples 1A and 1B and Comparative Example 2A were tested in vitro as follows. A transepithelial permeability in vitro model (TEP test) was used to assess fluorescein leakage (or increased transepithelial permeability) with the free acid in comparison with the ester form of the alpha linolenic acid.

[3] = system: corneal epithelium tissue construct (HCE construct, SkinEthic); details: human, 8 h
Method: (§1) The model uses a corneal epithelium tissue construct (e.g., HCE construct manufactured by SkinEthic).
(§2) The esterified anti-inflammatory lipid mediator dose-responses were then evaluated in the construct, whereby 30 microliters of the rewetting drop was topically applied to the tissue for 8 or 24 hours, and cell viability was then quantified along with a subset of selected potential biomarkers within the tissue culture media.

[4] = system: "contact lens induced dry eye" subjects; assay: Comfort upon instillation to the eye (non-dispensing clinical studies); details: human, in vivo
Method: Preliminary non-dispensing clinical studies were conducted to further assess the use of omega-three fatty acid compositions. A 0.05 wt. % concentration ester version of an omega-three fatty acid was instilled on three “contact lens induced dry eye” subjects (each with at least one sign and one symptom of contact lens induced dry eye) without any acute ocular discomfort or physiological findings. Similarly, a 0.2 wt. % concentration ester version of the omega-three fatty acid was instilled on four “contact lens induced dry eye” subjects without any acute ocular discomfort or physiological findings.

[5] = Uptake by narafilcon B contact lenses from propylene glycol solution, gas chromatography; format: physicochemical; details: for ALA-EE uptake: narafilcon B
Method: The alpha linolenic acid ethyl ester (ALA-EE) was dissolved in propylene glycol (PG) at concentrations of 0.05 and 0.5%, and silicon hydrogel lenses (Narafilcon B lenses (ACUVUE® TrueEye®)) were hydrated or soaked in the ALA-EE-containing propylene glycol solution for one hour at room temperature, followed by rinsing in DI water and repackaging of lenses in the packing solution. The lenses were packaging in borate buffer packing solution with 50 ppm methyl cellulose and autoclaved at 121° C. for 19 minutes. ALA-EE was quantified by gas chromatography.

[6] = system: corneal epithelium tissue construct (HCE construct, SkinEthic); assay: Corneal epithelial tissue model, cell viability (MTT), 8 hour exposure; details: 0.001 and 0.01%
Method: as §1, §2

uptake of ALA by the contact lenses ([1]; 0.05% ALA solution in IPA)	uptake of ALA by the contact lenses ([1]; 0.5% ALA solution in IPA)	ALA-EE uptake ([1]; 0.05% ALA-EE solution in IPA)	ALA-EE uptake ([1]; 0.5% ALA-EE solution in IPA)	hydrolysis of ester to free acid form ([1]; senofilcon lens loading from IPA)	impact on the in vitro endpoint, times less than linolenic acid (ALA) [3]	response on the eye (acute ocular discomfort) [4]	hydrolysis of the ester to the acid ([5]; narafilcon B lens, PG loading, autoclaved 121° C.)	ALA-EE uptake ([5]; 0.05% ALA-EE solution)	ALA-EE uptake ([5]; 0.5% ALA-EE solution)	Compound	effect on transepithelial permeability / fluorescein leakage [2]	cytotoxicity in the construct [6]
23 micrograms per lens	300 micrograms per lens	–	–	–	–	–	–	–	–	CC/C=C\C/C=C\C/C=C\CCCCCCCC(=O)O [ALA, alpha-linolenic acid, reference compound]	significant increase in fluorescein leakage	–
–	–	54 micrograms per lens	611 micrograms per lens	did not hydrolyze to the free acid form	10 times	lack of acute ocular discomfort	no detectable hydrolysis	91 micrograms per lens	721 micrograms per lens	CC/C=C\C/C=C\C/C=C\CCCCCCCC(=O)OCC [ALA-EE, ethyl linolenate]	behaved similarly to the vehicle	–
–	–	–	–	–	–	–	–	–	–	benzalkonium chloride [BAK]	–	non-cytotoxic
